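Following 48 hours of exposure in 96-well plates, responses at five concentrations were used to interpolate endpoints linearly. TGI marks complete inhibition of growth.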
Experiments:
Test in all cases: NCI tumour cell line growth inhibition, 48 h
[1] = system: K-562 leukemia
[2] = system: HT29 colon
[3] = system: BT-549 breast
[4] = system: OVCAR-3 ovarian
[5] = system: A549 NSCLC
[6] = system: SF-295 CNS
[7] = system: SK-MEL-2 melanoma
[8] = system: COLO 205 colon
[9] = system: OVCAR-5 ovarian
[10] = system: M14 melanoma
[11] = system: NCI-H460 lung
[12] = system: OVCAR-4 ovarian
[13] = system: T-47D breast
[14] = system: HS 578T breast
[15] = system: ACHN renal
[16] = system: SNB-19 CNS
[17] = system: SF-268 CNS
[18] = system: MDA-N
[19] = system: NCI-H226 lung
[20] = system: HOP-92 NSCLC
[21] = system: NCI/ADR-RES ovarian
[22] = system: EKVX NSCLC
[23] = system: IGROV1 ovarian
[24] = system: DU-145 prostate
[25] = system: SW-620 colon
[26] = system: PC-3 prostate
[27] = system: MDA-MB-231 breast
[28] = system: MCF7 breast
[29] = system: NCI-H23 lung
[30] = system: HL-60(TB) leukemia
[31] = system: KM12 colon
[32] = system: MDA-MB-435
[33] = system: SK-MEL-28 melanoma
[34] = system: 786-0 renal
[35] = system: SK-MEL-5 melanoma
[36] = system: CCRF-CEM leukemia
[37] = system: RXF 393 renal
[38] = system: SR leukemia
[39] = system: SK-OV-3 ovarian
[40] = system: MALME-3M melanoma
[41] = system: HCT-116 colon
[42] = system: SN12C renal
[43] = system: A498 renal
[44] = system: HOP-62 NSCLC
[45] = system: UO-31 renal
[46] = system: TK-10 renal
[47] = system: U251 CNS
[48] = system: HCT-15 colon
[49] = system: CAKI-1 renal
[50] = system: OVCAR-8 ovarian
[51] = system: SF-539 CNS
[52] = system: LOX IMVI melanoma
[53] = system: NCI-H522 lung
[54] = system: SNB-75 CNS
[55] = system: RPMI-8226 leukemia
[56] = system: UACC-257 melanoma
[57] = system: MOLT-4 leukemia
[58] = system: UACC-62 melanoma

N#CC(C#N)N=Nc1ccc(-c2nc3ccccc3[nH]2)cc1
TGI [1]: > 100 µM
TGI [2]: > 100 µM
TGI [3]: 36.3 µM
TGI [4]: 37.8 µM
TGI [5]: > 100 µM
TGI [6]: > 100 µM
TGI [7]: 64 µM
TGI [8]: 21.8 µM
TGI [9]: > 100 µM
TGI [10]: 52.3 µM
TGI [11]: > 100 µM
TGI [12]: 68.9 µM
TGI [13]: 55.7 µM
TGI [14]: > 100 µM
TGI [15]: 29 µM
TGI [16]: > 100 µM
TGI [17]: 66.4 µM
TGI [18]: 50.6 µM
TGI [19]: > 100 µM
TGI [20]: 49.6 µM
TGI [21]: 43.2 µM
TGI [22]: > 100 µM
TGI [23]: 37.9 µM
TGI [24]: 39.6 µM
TGI [25]: 46.9 µM
TGI [26]: 50.4 µM
TGI [27]: 35.5 µM
TGI [28]: 37.6 µM
TGI [29]: 66 µM
TGI [30]: 1.38 µM
TGI [31]: > 100 µM
TGI [32]: 40 µM
TGI [33]: 52 µM
TGI [34]: 70.9 µM
TGI [35]: > 100 µM
TGI [36]: 36.8 µM
TGI [37]: 34.8 µM
TGI [38]: > 100 µM
TGI [39]: > 100 µM
TGI [40]: 28 µM
TGI [41]: 43.2 µM
TGI [42]: > 100 µM
TGI [43]: > 100 µM
TGI [44]: > 100 µM
TGI [45]: 31.1 µM
TGI [46]: 73.4 µM
TGI [47]: > 100 µM
TGI [48]: 58.7 µM
TGI [49]: 82.6 µM
TGI [50]: 47.7 µM
TGI [51]: 35.5 µM
TGI [52]: 32.7 µM
TGI [53]: 22.9 µM
TGI [54]: > 100 µM
TGI [55]: > 100 µM
TGI [56]: 40.9 µM
TGI [57]: > 100 µM

CC(=O)N1N=C(c2cc(C)ccc2O)CC1c1cccc(Cl)c1 (centres undefined)
TGI [1]: > 100 µM
TGI [2]: 40.2 µM
TGI [3]: > 100 µM
TGI [4]: > 100 µM
TGI [5]: 47.4 µM
TGI [6]: 65 µM
TGI [7]: 28.8 µM
TGI [8]: 21.9 µM
TGI [9]: > 100 µM
TGI [10]: 84 µM
TGI [11]: 61.9 µM
TGI [12]: 54.8 µM
TGI [13]: > 100 µM
TGI [14]: 43 µM
TGI [15]: 47.8 µM
TGI [16]: 28.5 µM
TGI [17]: 50.5 µM
TGI [18]: 5.44 µM
TGI [19]: 58.8 µM
TGI [20]: 37 µM
TGI [21]: 61.2 µM
TGI [22]: 91.8 µM
TGI [23]: 8.45 µM
TGI [24]: > 100 µM
TGI [25]: 93.5 µM
TGI [26]: 66.1 µM
TGI [27]: 82.4 µM
TGI [28]: 34.6 µM
TGI [29]: 68.1 µM
TGI [30]: 42.4 µM
TGI [31]: > 100 µM
TGI [32]: 4.05 µM
TGI [34]: > 100 µM
TGI [35]: 27.8 µM
TGI [36]: 57.8 µM
TGI [37]: 34.2 µM
TGI [58]: 35.2 µM
TGI [38]: 9.42 µM
TGI [39]: 54.9 µM
TGI [40]: 62.1 µM
TGI [41]: > 100 µM
TGI [42]: 77 µM
TGI [44]: > 100 µM
TGI [45]: 50.3 µM
TGI [46]: 68.7 µM
TGI [47]: 39.7 µM
TGI [48]: 5.51 µM
TGI [49]: > 100 µM
TGI [50]: > 100 µM
TGI [51]: 69.8 µM
TGI [52]: 39.6 µM
TGI [53]: 14.3 µM
TGI [55]: 26.5 µM
TGI [56]: 41.6 µM
TGI [57]: 28 µM

COc1ccc(C(=O)N/N=C2\C(=O)c3c(C)cc(C)cc3CC2(C)C)cc1
TGI [1]: 64.7 µM
TGI [2]: 36.9 µM
TGI [3]: 36.2 µM
TGI [4]: 30.9 µM
TGI [5]: 44.2 µM
TGI [6]: 40.1 µM
TGI [7]: 36.2 µM
TGI [8]: 49.3 µM
TGI [9]: 55.5 µM
TGI [10]: 38.8 µM
TGI [11]: 78.4 µM
TGI [12]: > 100 µM
TGI [13]: 40.4 µM
TGI [14]: 41.9 µM
TGI [15]: 58.7 µM
TGI [16]: 84 µM
TGI [17]: 42.9 µM
TGI [18]: 39.3 µM
TGI [19]: 45.7 µM
TGI [20]: 31.3 µM
TGI [21]: 80.6 µM
TGI [22]: 70.1 µM
TGI [23]: 41.5 µM
TGI [24]: 63.8 µM
TGI [25]: 84.2 µM
TGI [26]: 47.7 µM
TGI [27]: 56.1 µM
TGI [28]: 36.4 µM
TGI [29]: > 100 µM
TGI [30]: 51.5 µM
TGI [31]: 39.9 µM
TGI [32]: 35.1 µM
TGI [33]: 42.2 µM
TGI [34]: 36.1 µM
TGI [35]: 31.9 µM
TGI [36]: 65.6 µM
TGI [37]: 32.6 µM
TGI [58]: 31.6 µM
TGI [38]: 47.9 µM
TGI [39]: > 100 µM
TGI [40]: 31.6 µM
TGI [41]: 32.1 µM
TGI [42]: 37.2 µM
TGI [43]: 42.4 µM
TGI [44]: 37.4 µM
TGI [46]: > 100 µM
TGI [47]: 31.9 µM
TGI [48]: 64.3 µM
TGI [49]: > 100 µM
TGI [50]: 56.6 µM
TGI [51]: 46 µM
TGI [52]: 34.2 µM
TGI [53]: 33.6 µM
TGI [54]: 56.5 µM
TGI [55]: 57.5 µM
TGI [56]: 98.5 µM
TGI [57]: 37.3 µM

— PubChem BioAssay (NCI)
